Measurements as given in BindingDB's records for patent US11286268 (eFFECTOR Therapeutics, Inc., 2022).

Molecular target: Eukaryotic translation initiation factor 4E (Homo sapiens, UniProt P06730)
Assay: Fluorescence Polarization Assay
Experimental: eIF4E protein was pre-incubated with EDA-m7GDP-ATTO-550 in FPB at 2xconcentrations for 5 minutes prior to the addition of compounds. Compounds (100x) were prepared using 3-fold serial dilutions in 100% DMSO, and subsequently diluted 1:50 in FPB to produce 2x stocks. 50 ul of 2x eIF4E/EDA-m7GDP-ATTO-550 were transferred to the wells of a 96-well half-area black flat bottom polystyrene plate. 50 ul of 2x test compound were added, and binding reactions were allowed to equilibrate for 30 minutes at room temperature while protected from light. The fluorescent polarization signal was detected using a Victor 2 multi-label counter (Perkin Elmer) and the concentration necessary to achieve inhibition of eIF4E/EDA-m7GDP-ATTO-550 binding by 50% (IC50) was calculated using data from an 8-point compound dilution series.

Eukaryotic translation initiation factor 4E, sequence (P06730 whole entry): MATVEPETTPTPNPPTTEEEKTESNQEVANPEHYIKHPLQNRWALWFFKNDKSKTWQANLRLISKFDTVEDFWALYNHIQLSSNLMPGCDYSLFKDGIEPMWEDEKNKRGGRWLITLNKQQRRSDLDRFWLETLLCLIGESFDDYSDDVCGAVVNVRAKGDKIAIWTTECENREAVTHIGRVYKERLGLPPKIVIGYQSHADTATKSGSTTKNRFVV

Structure (SMILES)	IC50 [nM]
Cc1nc2cnc(N(C)C3CCN(CC(F)F)CC3)c(C#N)c2c(=O)n1CCOc1ccc(Cl)cc1-c1ccnc2c(C(=O)O)csc12 [US11286268, Compound 1318]	34.4
Cc1nc2cnc(NC3CC[N+](C)(CC(F)F)CC3)c(C#N)c2c(=O)n1CC#Cc1ccc(Cl)cc1-c1ccnc2c(C(=O)O)csc12 (stereo not drawn) [US11286268, Compound 1663]	14.1
Cc1nc2cnc(N3CCN(C4CC4)C(C(F)F)C3)c(C#N)c2c(=O)n1CCOc1ccc(Cl)cc1-c1ccnc2c(C(=O)O)csc12 (stereo not drawn) [US11286268, Compound 1439]	12.8
Cc1nc2cc(C(F)(F)F)cc(C#N)c2c(=O)n1CCOc1ccc(Cl)cc1-c1cc(C(C)C)nc2c(C(=O)O)csc12 [US11286268, Compound 1902]	84.2
N#Cc1ccc(OCCn2cnc3cnc(C#N)cc3c2=O)c(-c2cccc(C(=O)O)c2)c1 [US11286268, Compound 2026]	656
Cc1nc2cnc(N(C)C3CCN(CC(C)(F)F)CC3)c(C#N)c2c(=O)n1CC#Cc1ccc(Cl)cc1-c1ccnc2c(C(=O)NS(=O)(=O)C(F)(F)F)csc12 [US11286268, Compound 1603]	2.12
CCN(c1ncc2nc(C)n(CC#Cc3ccc(Cl)cc3-c3ccnc4c(C(=O)NS(=O)(=O)C5COC5)csc34)c(=O)c2c1C#N)C1CCN(CC(F)(F)C(F)F)CC1 [US11286268, Compound 1608]	6.59
Cc1nc2cnc(N(C)CC3CCN(CC(F)F)CC3)c(C#N)c2c(=O)n1CC#Cc1ccc(Cl)cc1-c1ccnc2c(C(=O)O)csc12 [US11286268, Compound 1541]	10.6
Cc1nc2cnc(N3CC4(C3)CN(C3(C)CC(F)(F)C3)C4)c(C#N)c2c(=O)n1CCOc1ccc(Cl)cc1-c1ccnc2c(C(=O)O)csc12 [US11286268, Compound 1435]	26.4
Cc1nc2cnc(N3CC4(C3)CN(C3CCC3)C4)c(C#N)c2c(=O)n1CCOc1ccc(Cl)cc1-c1ccnc2c(C(=O)O)csc12 [US11286268, Compound 1437]	37.3
CCN(c1ncc2nc(C)n(CC#Cc3ccc(Cl)cc3-c3ccnc4c(C(=O)NS(=O)(=O)c5ccccn5)csc34)c(=O)c2c1C#N)C1CCN(CC(F)(F)C(F)F)CC1 [US11286268, Compound 1609]	4.88
Cc1nc2cnc(C(=O)C3CCN(CC(F)F)CC3)c(C#N)c2c(=O)n1CCOc1ccc(Cl)cc1-c1ccnc2c(C(=O)O)csc12 [US11286268, Compound 1440]	69
CCN(c1ncc2nc(C)n(CC#Cc3ccc(Cl)cc3-c3ccnc4c(C(=O)NS(=O)(=O)CF)csc34)c(=O)c2c1C#N)C1CCN(C2COC2)CC1 [US11286268, Compound 1743]	6.87
